ChEMBL document CHEMBL1201862, “PubChem BioAssay data set” (2004)
Calls of active or inactive are those of the source.

Tests used:
[1] = biological target: T1, Carboxy-terminal domain RNA polymerase II polypeptide A small phosphatase 1 (Homo sapiens, UniProt Q9GZU7); test: CTDSP1 inhibitors, concentration-response, biochemical, absorbance readout, ultra-high-throughput screen actives (AID 540297); type: functional
T1 sequence (Q9GZU7 whole entry): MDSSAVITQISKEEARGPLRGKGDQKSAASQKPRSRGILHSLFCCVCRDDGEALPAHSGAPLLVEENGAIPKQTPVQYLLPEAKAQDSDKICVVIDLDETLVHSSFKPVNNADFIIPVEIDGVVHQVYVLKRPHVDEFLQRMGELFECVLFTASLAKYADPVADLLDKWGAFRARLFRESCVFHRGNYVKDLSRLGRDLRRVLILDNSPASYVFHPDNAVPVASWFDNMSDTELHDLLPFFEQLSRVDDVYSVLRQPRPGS

[2] = biological target: T2, Short transient receptor potential channel 4 (Mus musculus, UniProt Q9QUQ5); test: calcium entry via TRPC4 opening agents – cell-based, HEK293 TRPC4/mu-opioid, Fluo-4 calcium, dose response (AID 434937); type: functional
T2 sequence (Q9QUQ5 whole entry): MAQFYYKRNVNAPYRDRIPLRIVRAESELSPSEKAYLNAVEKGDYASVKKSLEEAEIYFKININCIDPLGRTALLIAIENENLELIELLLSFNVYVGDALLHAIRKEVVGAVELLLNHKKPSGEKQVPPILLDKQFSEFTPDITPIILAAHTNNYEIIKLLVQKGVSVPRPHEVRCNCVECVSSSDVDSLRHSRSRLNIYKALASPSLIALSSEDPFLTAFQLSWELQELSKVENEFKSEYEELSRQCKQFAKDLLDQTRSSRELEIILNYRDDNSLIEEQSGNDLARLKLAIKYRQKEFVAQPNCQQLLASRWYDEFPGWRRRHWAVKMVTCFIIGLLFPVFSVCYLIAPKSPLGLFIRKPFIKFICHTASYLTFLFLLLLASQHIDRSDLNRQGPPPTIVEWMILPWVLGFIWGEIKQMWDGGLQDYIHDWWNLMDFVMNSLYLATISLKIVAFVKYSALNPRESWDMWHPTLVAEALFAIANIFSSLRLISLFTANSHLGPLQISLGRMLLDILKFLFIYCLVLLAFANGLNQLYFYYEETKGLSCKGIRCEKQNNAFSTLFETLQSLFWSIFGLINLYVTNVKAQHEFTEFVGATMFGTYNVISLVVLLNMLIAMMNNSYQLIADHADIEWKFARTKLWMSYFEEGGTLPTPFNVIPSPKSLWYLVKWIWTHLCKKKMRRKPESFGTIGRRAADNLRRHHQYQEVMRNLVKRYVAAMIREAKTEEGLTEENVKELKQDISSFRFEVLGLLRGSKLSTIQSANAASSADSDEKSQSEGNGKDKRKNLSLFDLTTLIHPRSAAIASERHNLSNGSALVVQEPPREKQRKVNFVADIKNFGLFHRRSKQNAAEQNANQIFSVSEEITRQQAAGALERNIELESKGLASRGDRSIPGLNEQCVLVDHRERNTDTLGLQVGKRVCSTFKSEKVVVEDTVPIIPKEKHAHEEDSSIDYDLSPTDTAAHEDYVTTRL

[3] = biological target: T3, Corticotropin-releasing factor receptor 2/Corticotropin-releasing factor-binding protein (Homo sapiens, UniProt P24387+Q13324); test: Dose Response confirmation of uHTS hits for small molecule antagonists of the CRF-binding protein and CRF-R2 receptor complex.; type: functional; conditions: read-out: IC50_Mean
T3 sequence (Q13324 whole entry): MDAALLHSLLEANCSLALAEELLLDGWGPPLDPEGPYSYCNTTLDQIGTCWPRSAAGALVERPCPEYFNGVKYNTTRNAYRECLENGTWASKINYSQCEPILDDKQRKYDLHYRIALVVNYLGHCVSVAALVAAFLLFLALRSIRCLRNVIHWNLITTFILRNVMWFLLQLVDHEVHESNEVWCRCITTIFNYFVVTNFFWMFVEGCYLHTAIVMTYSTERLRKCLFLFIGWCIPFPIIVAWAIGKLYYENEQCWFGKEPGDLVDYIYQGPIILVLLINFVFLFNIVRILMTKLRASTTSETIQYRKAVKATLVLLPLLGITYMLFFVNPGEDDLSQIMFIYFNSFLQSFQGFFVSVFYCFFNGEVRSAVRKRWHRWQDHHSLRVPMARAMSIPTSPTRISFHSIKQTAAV
T3 sequence (P24387 whole entry): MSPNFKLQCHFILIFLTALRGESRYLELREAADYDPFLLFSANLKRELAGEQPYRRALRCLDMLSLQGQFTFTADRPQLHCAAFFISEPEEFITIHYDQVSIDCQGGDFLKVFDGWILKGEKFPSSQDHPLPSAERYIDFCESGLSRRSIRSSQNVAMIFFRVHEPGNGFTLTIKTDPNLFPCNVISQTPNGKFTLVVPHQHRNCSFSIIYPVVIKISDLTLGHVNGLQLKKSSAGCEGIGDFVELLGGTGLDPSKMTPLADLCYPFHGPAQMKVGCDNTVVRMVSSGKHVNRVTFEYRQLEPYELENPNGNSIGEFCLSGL

[4] = biological target: T3, Corticotropin-releasing factor receptor 2/Corticotropin-releasing factor-binding protein; test: activators of CRF receptor 2 with binding protein – uHTS hits, confirmation (AID 602473); type: functional; conditions: read-out: EC50_Mean
[5] = blockers of CRF-binding protein–CRF-R2 complex – cell-based, uHTS hits, 384-well, dose response (AID 651639); type: functional, Homo sapiens; conditions: read-out: IC50_Mean
[6] = tested on: Vero; test: mammalian cell viability reduction – secondary assay, cytotoxicity control for West Nile virus antiviral project, dose response (AID 1650); type: functional; conditions: Chlorocebus sabaeus
[7] = A cytotoxicity screen of small molecule inhibitors of the PhoP region in Salmonella typhi identified in the primary screen. [Related pubchem assays: 1850, 1864, 1985 ]; type: functional
[8] = cells; type: functional, cell-based
[9] = biological target: T4, Fatty acid synthase (Homo sapiens, UniProt P49327); test: inhibition of human FAS-TE enzyme activity – biochemical, endpoint fluorescence intensity, uHTS hits, dose response (AID 624327); type: functional;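 note: fluorescence from hydrolysis of an O-methyl fluorescein acyl ester substrate by the enzyme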
T4 sequence (P49327 whole entry): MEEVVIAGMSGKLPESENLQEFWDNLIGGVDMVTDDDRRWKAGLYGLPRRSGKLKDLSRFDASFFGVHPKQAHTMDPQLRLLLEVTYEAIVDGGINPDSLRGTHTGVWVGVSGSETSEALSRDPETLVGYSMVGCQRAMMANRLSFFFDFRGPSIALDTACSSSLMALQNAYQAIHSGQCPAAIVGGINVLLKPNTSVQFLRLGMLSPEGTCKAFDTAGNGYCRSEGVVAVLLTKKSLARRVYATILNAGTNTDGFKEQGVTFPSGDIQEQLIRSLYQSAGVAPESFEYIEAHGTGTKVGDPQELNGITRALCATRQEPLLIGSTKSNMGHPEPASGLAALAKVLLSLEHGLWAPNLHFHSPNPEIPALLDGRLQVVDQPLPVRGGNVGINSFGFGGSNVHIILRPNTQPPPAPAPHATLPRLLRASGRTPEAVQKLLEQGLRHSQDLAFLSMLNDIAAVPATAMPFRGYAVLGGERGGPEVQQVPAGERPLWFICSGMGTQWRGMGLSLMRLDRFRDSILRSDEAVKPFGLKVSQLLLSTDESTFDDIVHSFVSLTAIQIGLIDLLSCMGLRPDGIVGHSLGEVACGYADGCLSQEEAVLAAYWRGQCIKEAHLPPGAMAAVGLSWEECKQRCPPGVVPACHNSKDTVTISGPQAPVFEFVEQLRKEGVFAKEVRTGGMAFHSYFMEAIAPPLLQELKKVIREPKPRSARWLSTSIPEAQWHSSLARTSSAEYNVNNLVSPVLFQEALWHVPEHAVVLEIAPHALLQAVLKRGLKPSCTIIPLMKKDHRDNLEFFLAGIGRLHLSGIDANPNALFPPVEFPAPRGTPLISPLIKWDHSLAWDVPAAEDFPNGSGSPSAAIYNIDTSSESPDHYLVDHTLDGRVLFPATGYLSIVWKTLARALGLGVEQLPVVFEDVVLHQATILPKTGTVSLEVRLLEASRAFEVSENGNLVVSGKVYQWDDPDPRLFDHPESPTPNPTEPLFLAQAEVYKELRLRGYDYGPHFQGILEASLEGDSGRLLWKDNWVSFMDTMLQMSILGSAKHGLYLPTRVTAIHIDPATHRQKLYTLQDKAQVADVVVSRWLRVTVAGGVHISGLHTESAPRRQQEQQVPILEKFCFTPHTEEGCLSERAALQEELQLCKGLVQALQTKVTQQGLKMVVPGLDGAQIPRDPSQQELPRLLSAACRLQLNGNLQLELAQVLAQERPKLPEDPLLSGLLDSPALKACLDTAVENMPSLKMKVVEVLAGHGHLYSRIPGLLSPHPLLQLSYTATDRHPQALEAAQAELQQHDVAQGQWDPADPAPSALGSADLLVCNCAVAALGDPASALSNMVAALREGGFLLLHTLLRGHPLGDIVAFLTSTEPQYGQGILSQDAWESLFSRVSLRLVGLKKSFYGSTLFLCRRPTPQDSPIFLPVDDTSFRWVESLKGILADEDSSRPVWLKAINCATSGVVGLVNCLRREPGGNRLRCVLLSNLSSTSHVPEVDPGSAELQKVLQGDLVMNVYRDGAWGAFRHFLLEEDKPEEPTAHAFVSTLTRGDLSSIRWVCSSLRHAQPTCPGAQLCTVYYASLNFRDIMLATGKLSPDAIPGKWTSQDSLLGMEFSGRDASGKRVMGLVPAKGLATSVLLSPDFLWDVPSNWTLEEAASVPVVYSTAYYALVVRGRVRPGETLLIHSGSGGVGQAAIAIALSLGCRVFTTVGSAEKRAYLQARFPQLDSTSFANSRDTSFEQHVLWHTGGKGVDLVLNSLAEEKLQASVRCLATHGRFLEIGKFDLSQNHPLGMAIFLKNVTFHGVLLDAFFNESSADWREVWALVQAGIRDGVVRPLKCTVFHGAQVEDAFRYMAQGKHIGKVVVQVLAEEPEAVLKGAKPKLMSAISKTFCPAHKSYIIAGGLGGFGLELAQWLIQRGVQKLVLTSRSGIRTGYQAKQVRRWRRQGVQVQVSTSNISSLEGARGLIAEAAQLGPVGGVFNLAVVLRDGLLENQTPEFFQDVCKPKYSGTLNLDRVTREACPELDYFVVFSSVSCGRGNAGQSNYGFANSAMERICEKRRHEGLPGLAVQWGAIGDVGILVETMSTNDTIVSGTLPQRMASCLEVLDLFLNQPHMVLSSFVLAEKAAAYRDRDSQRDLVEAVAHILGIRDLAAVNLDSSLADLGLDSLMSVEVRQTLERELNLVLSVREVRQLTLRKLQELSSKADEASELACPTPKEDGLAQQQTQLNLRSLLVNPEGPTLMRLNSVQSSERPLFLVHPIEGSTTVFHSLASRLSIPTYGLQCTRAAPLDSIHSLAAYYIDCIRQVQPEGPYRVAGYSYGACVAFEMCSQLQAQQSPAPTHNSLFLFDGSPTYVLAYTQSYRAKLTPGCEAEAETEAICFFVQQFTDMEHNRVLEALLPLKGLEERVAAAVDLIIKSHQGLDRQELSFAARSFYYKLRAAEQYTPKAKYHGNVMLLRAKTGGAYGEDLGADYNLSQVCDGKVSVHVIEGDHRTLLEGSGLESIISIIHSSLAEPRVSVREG

[10] = biological target: T4, Fatty acid synthase; test: inhibition of human FAS-TE enzyme activity – biochemical, kinetic fluorescence intensity, dose response (AID 624326); type: functional;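 note: rate of fluorescence rise from hydrolysis of a fluorogenic O-methyl fluorescein ester substrate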
[11] = biological target: Luciferin 4-monooxygenase (Photinus pyralis, UniProt P08659); test: inhibition of purified Photinus pyralis luciferase – biochemical, luminescence, dose response (AID 1891)
Sequence of Luciferin 4-monooxygenase (P08659 whole entry): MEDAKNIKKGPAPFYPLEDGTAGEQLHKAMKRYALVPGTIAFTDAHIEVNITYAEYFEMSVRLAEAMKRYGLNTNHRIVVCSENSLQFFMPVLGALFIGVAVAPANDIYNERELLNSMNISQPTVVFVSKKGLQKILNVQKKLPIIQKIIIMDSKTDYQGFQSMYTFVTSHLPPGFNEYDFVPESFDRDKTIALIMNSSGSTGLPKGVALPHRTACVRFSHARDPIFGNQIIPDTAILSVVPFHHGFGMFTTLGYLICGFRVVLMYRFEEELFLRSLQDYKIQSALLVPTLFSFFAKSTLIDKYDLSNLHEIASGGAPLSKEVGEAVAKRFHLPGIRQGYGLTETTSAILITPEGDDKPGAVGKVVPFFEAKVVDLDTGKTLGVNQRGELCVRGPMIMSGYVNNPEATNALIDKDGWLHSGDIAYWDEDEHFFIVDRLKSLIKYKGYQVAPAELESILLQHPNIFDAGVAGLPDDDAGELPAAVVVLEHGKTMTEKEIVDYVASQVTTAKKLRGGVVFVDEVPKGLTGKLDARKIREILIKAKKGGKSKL

[12] = Luminescence Cell-Based Dose Confirmation HTS to Identify Inhibitors of Platelet Dense Granule Release. [Related pubchem assays: 1663 (Primary HTS), 1678 (Summary of Project)]; type: functional
[13] = tested on: HEK293; test: inhibition of NOD1-driven NF-kB reporter – cell-based, luminescence, uHTS, primary screen (AID 1578); type: functional; conditions: Homo sapiens
[14] = tested on: BJ; test: BJ-TERT fibroblast viability loss – cell-based, RAS-independent, luminescence, dose response (AID 1933); type: functional; conditions: Homo sapiens
[15] = tested on: HEK293; test: cells; type: functional, cell-based; conditions: Homo sapiens
[16] = tested on: BJ; test: cells; type: functional, cell-based; conditions: Homo sapiens
[17] = tested on: HEK293; test: cells; type: functional, cell-based; conditions: Homo sapiens; remark: listed apart in the source
[18] = tested on: HEK293; test: NOD2 signaling inhibitors in MDP-stimulated cells, cell-based, uHTS, luminescence (AID 2001); type: functional; conditions: Homo sapiens
[19] = microbe, parasite or virus in culture; type: functional; conditions: Mycobacterium tuberculosis
[20] = tested on: BJ; test: BJ-TERT-LT-ST fibroblast viability loss – cell-based, RAS-independent, luminescence, dose response (AID 1935); type: functional; conditions: Homo sapiens;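 note: BJ fibroblasts immortalized with TERT plus LT and ST oncogenes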
[21] = DRD fibroblast viability loss – cell-based, non-viral oncogenic, luminescence, dose response (AID 1934); type: functional; conditions: Homo sapiens
[22] = biological target: DNA dC->dU-editing enzyme APOBEC-3G (Homo sapiens, UniProt Q9HC16); test: Dose Response confirmation of small molecule APOBEC3G DNA Deaminase Inhibitors via a fluorescence-based single-stranded DNA deaminase assay. [Related pubchem assays (depositor defined):AID493012, AID493028]; type: functional
Sequence of DNA dC->dU-editing enzyme APOBEC-3G (Q9HC16 whole entry): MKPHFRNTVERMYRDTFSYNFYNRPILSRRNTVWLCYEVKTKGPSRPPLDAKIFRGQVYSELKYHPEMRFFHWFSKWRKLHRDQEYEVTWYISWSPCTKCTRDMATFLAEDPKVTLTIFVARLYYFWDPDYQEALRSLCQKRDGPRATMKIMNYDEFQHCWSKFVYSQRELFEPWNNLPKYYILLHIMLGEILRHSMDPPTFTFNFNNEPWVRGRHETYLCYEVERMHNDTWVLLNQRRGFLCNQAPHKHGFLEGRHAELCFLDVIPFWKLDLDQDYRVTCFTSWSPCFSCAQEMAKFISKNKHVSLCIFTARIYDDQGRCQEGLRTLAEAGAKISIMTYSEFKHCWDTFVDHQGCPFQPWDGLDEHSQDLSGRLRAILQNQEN

[23] = reduction of Shn3 3'UTR-driven luciferase in osteoblasts – cell-based, Clone20 osteoblasts, firefly luciferase, cherry-picked, dose response (AID 624132); type: functional;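 note: firefly luciferase luminescence from reporter carrying the Shn3 3'UTR in osteoblasts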
[24] = non-specific 3'UTR reporter inhibition in Clone20-Shn3RL – cell-based, Renilla luciferase, cherry-picked, counter-screen for Shn3 inhibitor project, dose response (AID 624133); type: functional
[25] = P. falciparum Dd2 growth inhibitors, dose response, SYBR Green, cherry-picked samples (AID 1159567); type: functional, cell-based
[26] = Trypanosoma cruzi growth suppression in host cells – NIH3T3 host cells, beta-gal luminescence, confirmation (AID 2044); type: functional, cell-based;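 note: intracellular parasites grown in NIH/3T3 mouse fibroblasts as host cells; luminescent beta-galactosidase reporter signal from transgenic T. cruzi replicating inside host cells; inhibitors lower the luminescence signal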
[27] = NIH3T3 cell viability loss – ATP luminescence, mouse fibroblasts, counter-screen, dose response (AID 2010); type: functional, cell-based; conditions: NIH3T3;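 note: cells exposed to compound for about 90 hours before reading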
[28] = biological target: Cytochrome P450 2C19 (Homo sapiens, UniProt P33261); test: Cytochrome panel assay with activity outcomes. Panel member name: p450-cyp2c19 Compounds with AC50 equal or less than 10 uM are considered active; type: functional; conditions: read-out: AC50
Sequence of Cytochrome P450 2C19 (P33261 whole entry): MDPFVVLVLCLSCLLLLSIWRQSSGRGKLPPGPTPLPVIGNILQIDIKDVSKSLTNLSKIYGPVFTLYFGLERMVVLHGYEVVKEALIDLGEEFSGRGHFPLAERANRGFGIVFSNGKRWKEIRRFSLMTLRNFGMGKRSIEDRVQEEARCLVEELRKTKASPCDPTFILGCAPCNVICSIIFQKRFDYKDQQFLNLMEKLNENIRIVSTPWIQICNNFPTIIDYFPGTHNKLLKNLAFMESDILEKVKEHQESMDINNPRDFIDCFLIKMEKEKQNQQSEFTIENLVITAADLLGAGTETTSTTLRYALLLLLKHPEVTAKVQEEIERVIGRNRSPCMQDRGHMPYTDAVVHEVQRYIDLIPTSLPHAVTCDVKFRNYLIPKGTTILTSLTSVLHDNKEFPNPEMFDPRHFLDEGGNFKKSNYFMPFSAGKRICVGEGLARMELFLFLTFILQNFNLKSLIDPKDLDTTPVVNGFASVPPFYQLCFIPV

[29] = biological target: Cytochrome P450 2C9 (Homo sapiens, UniProt P11712)
Sequence of Cytochrome P450 2C9 (P11712 whole entry): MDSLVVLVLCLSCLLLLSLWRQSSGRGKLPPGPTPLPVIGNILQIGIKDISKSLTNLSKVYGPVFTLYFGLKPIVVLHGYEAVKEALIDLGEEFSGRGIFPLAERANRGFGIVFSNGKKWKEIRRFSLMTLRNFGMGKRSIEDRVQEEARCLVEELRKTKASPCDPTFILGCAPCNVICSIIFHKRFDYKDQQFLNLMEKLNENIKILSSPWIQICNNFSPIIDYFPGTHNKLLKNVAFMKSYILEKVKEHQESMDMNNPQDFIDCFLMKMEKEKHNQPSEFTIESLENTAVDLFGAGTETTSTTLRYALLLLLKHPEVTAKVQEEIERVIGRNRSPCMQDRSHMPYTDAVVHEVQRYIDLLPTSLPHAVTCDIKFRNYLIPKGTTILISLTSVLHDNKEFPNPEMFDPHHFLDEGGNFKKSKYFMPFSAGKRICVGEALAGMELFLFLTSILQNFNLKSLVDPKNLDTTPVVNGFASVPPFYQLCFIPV

COCCCN(C(=O)c1cc(-c2ccco2)nc2ccccc12)c1c(N)n(Cc2ccccc2)c(=O)[nH]c1=O
IC50 [1]: 12 µM (active)

COc1ccc2c3c1OC1C(O)C=CC4C(C2)[N+](C)(C)CCC341 (centres undefined)
IC50 [1]: 7 µM (active)

Fc1ccc(-n2cc(CNCCc3cccnc3)c(-c3ccccc3Cl)n2)cc1
EC50 [2]: 5.96 µM (active)

Cc1nc2ccccc2n1CC(O)COC1CCCCC1 (centres undefined)
IC50 [3]: 41.8 µM (active) | EC50 [4]: > 53 µM (inactive) | IC50 [5]: 8.02 µM (active)

O=S(=O)(CC(CN1CCCCC1)N1CCCCC1)c1ccccc1 (centres undefined)
CC50 [6]: 14.4 µM (active)

COc1cccc(NC2=NC(N)=NC3(CCCCC3)N2)c1
EC50 [7]: > 50 µM (active)

CC(C)c1ccc(N(C(=O)c2snc(C(N)=O)c2N)C(C(=O)NC2CCCC2)c2ccncc2)cc1 (centres undefined)
EC50 [8]: > 350 µM (not active)

COC(=O)c1cc(OC)c(OC)cc1NC(=O)c1c(-c2ccccc2Cl)noc1C
IC50 [3]: < 0.368 µM (active) | EC50 [4]: > 53 µM (inactive) | IC50 [5]: > 20 µM (inactive)

CC(CCc1ccco1)NC(=O)c1cccc2c1C(=O)N(C1CCCCC1)C2 (centres undefined)
IC50 [3]: < 0.368 µM (active) | EC50 [4]: > 53 µM (inactive) | IC50 [5]: > 20 µM (inactive)

Cc1cccc(C(=O)NCCC(=O)Nc2ccc(F)c([N+](=O)[O-])c2)c1
EC50 [7]: > 50 µM (active) | IC50 [9]: 12.3 µM (active) | IC50 [10]: 9.57 µM (active)

C/C=C/c1ccc(OCc2cc(=O)n3cc(C)ccc3n2)c(OC)c1
EC50 [7]: > 50 µM (active) | EC50 [11]: > 112 µM (not active) | EC50 [12]: 58.2 µM (active)

COc1ccc(C(CNC(=O)COc2ccccc2OC)N(C)C)cc1OC (centres undefined)
EC50 [2]: 1.19 µM (active)

CCOC(=O)C1(Cc2cccc(F)c2)CCN(Cc2cnn(CC)c2C)CC1
EC50 [2]: 0.211 µM (active)

Cc1cccc(C)c1NC(=O)CN(C)C(=O)c1ccc2nc[nH]c2c1
IC50 [1]: 28 µM (active)

Cc1ccc(C)c(OCCn2ccnc2)c1
IC50 [1]: 5.06 µM (active)

CCCc1cc(NC(=O)CCl)n(-c2ccccc2)n1
EC50 [13]: 14.3 µM (active) | EC50 [14]: 29.7 µM (active) | IC50 [15]: 4.55 µM (active) | EC50 [16]: > 150 µM (not active) | IC50 [17]: > 20 µM (inactive) | IC50 [18]: 11.1 µM (inactive) | CC50 [19]: 17.4 µM (active) | EC50 [20]: > 150 µM (not active) | EC50 [21]: > 150 µM (not active)

CCOc1ccc(C(=S)NC2CCCCC2)cc1OCC
IC50 [22]: 55.7 µM (active)

Cc1cc(NC(=O)c2ccccc2)sc1C
EC50 [7]: > 50 µM (active)

O=[N+]([O-])c1ccc2nc(S)sc2c1
IC50 [3]: 7.04 µM (active) | EC50 [4]: 27.1 µM (active) | IC50 [5]: > 20 µM (inactive)

CC[C@]12c3[nH]c4cc(CCC(=O)N(C)C)ccc4c3CCN1C(=O)[C@@H](CC(=O)NC/C=C(\C)CCC=C(C)C)C[C@@H]2C(=O)N1CCN(C(=O)c2ccco2)CC1
AC50 [23]: 1.68 µM (active) | AC50 [24]: 1.72 µM (active)

COc1ccc(CCN(C)CCC(=O)Nc2c(C)cc(C)cc2C)cc1OC
EC50 [2]: 4.73 µM (active)

Cc1noc(C)c1COC(=O)[C@@H](NC(=O)c1ccccc1)C(C)C
AC50 [24]: 52.5 µM (active)

C[C@H](CO)N1C[C@H](C)[C@H](CN(C)C(=O)Nc2ccc(-c3ccccc3)cc2)OCc2ccccc2-c2c(n(C)c3ccccc23)C1=O
AC50 [25]: 4.77 µM (active)

CCOC(=O)N/N=C\c1ccc([N+](=O)[O-])o1
EC50 [7]: > 50 µM (active) | EC50 [26]: 0.542 µM (active) | EC50 [27]: > 30 µM (not active) | AC50 [28]: 25.1 µM (inconclusive)

CN1c2ccc(C#Cc3cccnc3)cc2[C@@H]2[C@@H](CCN2S(=O)(=O)c2ccccc2F)[C@@H]1CO
AC50 [25]: 3.87 µM (active)

CCC(=O)N1CCC2(CC1)CN(Cc1cc(F)ccc1F)[C@@H](CO)c1[nH]c3cc(OC)ccc3c12
AC50 [25]: 4.19 µM (active)

Clc1cnc(Oc2ccc(Oc3ncc(Cl)cc3Cl)cc2)c(Cl)c1
IC50 [3]: < 0.368 µM (active) | EC50 [4]: > 53 µM (inactive) | IC50 [5]: 18 µM (active) | AC50 [29]: inconclusive
